Paper PMC9780942, “Antimicrobial Activity and Immunomodulatory Properties of Acidocin A, the Pediocin-like Bacteriocin with the Non-Canonical Structure” (Membranes, 2022)
Positions of bridges follow the written chain, without caps; N, C: chain ends. No end group written: not given here.

Experiments:
[1] = system: primary CD14+ blood monocytes; test: Cytokine response by human monocytes, multiplex xMAP; assay type: cell-based; conditions: 2 µM peptide, 24 h, supernatant; for MCP-3: untreated control 52.14; for TNFa: untreated control 67.34; for PDGF-AB/BB: untreated control 86.09; for MIG: untreated control 205.59
L. monocytogenes EGD [2] = assay type: cell-based, Listeria monocytogenes; conditions: 24 h
Method: (§1) Antibacterial activity of recombinant bacteriocins against a number of Gram-positive and Gram-negative bacteria (Table S2) was determined by the method of two-fold serial dilutions in a liquid medium. Two-fold serial dilutions of bacteriocins were prepared in sterile 96-well flat-bottom polystyrene microplates (Eppendorf, Hamburg, Germany) (Cat. No. 0030730.011) in a volume of 50 µL of sterile 0.1% bovine serum albumin (BSA) (SERVA Electrophoresis GmbH, Heidelberg, Germany) to prevent non-specific sorption of peptides to the surface of the plate wells [23]. Mid-log phase bacterial cultures were diluted with the 2x Mueller-Hinton broth (MHB) (Sigma-Aldrich, St. Louis, MO, USA) to a final cell concentration of 10^6 colony forming units (CFU) per mL. To determine the activity of bacteriocins against Listeria and Enterococci, 3% tryptic soy broth (TSB) (Merck-Millipore, Burlington, MA, USA) was used instead of MHB. Aliquots of 50 μL of diluted bacterial suspensions were added to each well of the plate, which was then incubated at 37 °C and 950 rpm for 24 h using thermostatable plate shaker PST-60HL-4 (Biosan, Riga, Latvia). As a negative control, 50 µL of the sterile growth medium (2xMHB or 6% TSB) was added to the wells containing 50 µL of 0.1% BSA. The values of the minimum inhibitory concentrations (MIC) were determined as the minimum concentration of the peptide, at which there was no visible growth of bacterial culture. Incubation for 2 h with 20 µg/mL chromogenic substrate resazurin (Sigma-Aldrich, St. Louis, MO, USA) was used to detect viable bacterial cells if they were difficult to visually detect. To study the effect of inorganic salts on the antimicrobial activity of bacteriocins, antibacterial activity assay was carried out in MHB medium supplemented with 0.9% NaCl.

L. lactis MK43 = test: Antibacterial activity assay (MIC), two-fold serial dilutions in liquid medium; assay type: cell-based; conditions: MHB, 0.1% BSA, 37 °C, 24 h, no visible growth
Method: as §1

B. subtilis B-886 = assay type: cell-based; conditions: B-886, 24 h
Method: as §1

M. luteus Ac-2229 = assay type: cell-based; conditions: Ac-2229, 24 h
Method: as §1

[3] = system: P. aeruginosa MDR CI 1995; assay type: cell-based; conditions: MDR CI 1995, 24 h
Method: as §1

E. coli XDR CI 1057 = assay type: cell-based; conditions: XDR CI 1057, 24 h
Method: as §1

A. baumannii XDR CI 2675 = assay type: cell-based; conditions: XDR CI 2675, 24 h
Method: as §1

L. lactis MK66 = assay type: cell-based; conditions: MK66, 24 h
Method: as §1

E. coli ML-35p = assay type: cell-based; conditions: 24 h
Method: as §1

M. phlei Ac-1221 = assay type: cell-based; conditions: 24 h
Method: as §1

S. aureus 209P = assay type: cell-based; conditions: 24 h
Method: as §1

E. coli ATCC 25922 = assay type: cell-based; conditions: ATCC 25922, 24 h
Method: as §1

E. coli SQ110 = assay type: cell-based; conditions: SQ110, 24 h
Method: as §1

B. licheniformis B-511 = assay type: cell-based; conditions: 24 h
Method: as §1

L. monocytogenes EGD [4] = test: Agar diffusion (spot-on-lawn) assay; assay type: cell-based, Listeria monocytogenes; conditions: 1–10 µg peptide spotted on 3% TSB agar, 37 °C, 24 h
Method: Additionally, the activity of bacteriocins against L. monocytogenes EGD was qualitatively determined using agar diffusion (“spot-on-lawn”) assay. An amount of 5 µL of water solutions containing 1–10 µg of purified bacteriocins were applied to agar plates containing 3% TSB medium with mid-log phase culture of L. monocytogenes EGD diluted to a OD600 of about 0.001 (≅7 × 10^5 CFU/mL) and incubated overnight at 37 °C for 24 h. Antibiotic tetracycline (0.5 µg) was used as a positive control. The formation of visible zones of bacterial growth inhibition in places where bacteriocins were added indicated the presence of antimicrobial activity.

With “TYYGNGVSCNKKGCSVDWGKAISIIGNNSAANLATGGAAGWKS (disulfide 9-14) [Avicin A]” the IL-1b ([1]; untreated control 2.28) was 17.13 pg/mL, the IL-6 ([1]; untreated control 4.48) was 2787 pg/mL and the VEGFa ([1]; untreated control 5.44) was <1.52↓ pg/ml. It also gave an MIP-1a ([1]; untreated control 11.73) of 6628 pg/mL, a PDGF-AA ([1]; untreated control 12.5) of 10.87 pg/mL and a sCD40L ([1]; untreated control 15.86) of 45.71 pg/mL. For the same sequence, the IP-10 ([1]; untreated control 19.67) was 21.71 pg/mL, the MIP-1b ([1]; untreated control 34.63) was 3805 pg/mL and the MCP-3 [1] was 227 pg/mL. The MCP-3 ([1]; listed as AviA) was 227.15 pg/mL, the TNFa [1] was 17,982 pg/ml and the TNFa ([1]; listed as AviA) was 17982 pg/mL. The PDGF-AB/BB [1] was 99 pg/mL, the PDGF-AB/BB ([1]; listed as AviA) was 99.49 pg/mL and the MIG [1] was 729 pg/mL. For the same sequence, the MIG ([1]; listed as AviA) was 729.91 pg/mL, the IL-1RA ([1]; untreated control 261.2) was 253.61 pg/mL and the GROa ([1]; untreated control 311.89) was 4832 pg/mL. The MDC ([1]; untreated control 463.06) was 2303 pg/mL, the MCP-1 ([1]; untreated control 464.5) was 3950 pg/mL and the IL-8 ([1]; untreated control 12488) was >36420↑ pg/ml. For the same sequence, the IL-7 ([1]; untreated control <0.20) was <0.20↓ pg/ml, the IL-18 ([1]; untreated control <0.20) was <0.20↓ pg/ml and the IL-5 ([1]; untreated control <0.26) was <0.26↓ pg/ml. For the same sequence, the IL-4 ([1]; untreated control <0.33) was <0.33↓ pg/ml, the TNFb ([1]; untreated control <0.49) was 7.81 pg/mL and the TGF-a ([1]; untreated control <0.53) was 2.38 pg/mL. For the same sequence, the IL-3 ([1]; untreated control <0.68) was <0.68↓ pg/ml, the IL-2 ([1]; untreated control <0.85) was 0.86 pg/mL and the IL-10 ([1]; untreated control <1.23) was 4.28 pg/mL. For the same sequence, the FLT-3L ([1]; untreated control <1.35) was <1.35↓ pg/ml, the GM-CSF ([1]; untreated control <1.39) was 12.72 pg/mL and the IL-15 ([1]; untreated control <1.45) was 1.55 pg/mL. The “IL-12 (p70)” value ([1]; untreated control <1.58) was <1.58↓ pg/ml, the IFNg ([1]; untreated control <1.79) was <1.79↓ pg/ml and the IL-17A ([1]; untreated control <2.00) was <2.00↓ pg/ml. For the same sequence, the IL-1a ([1]; untreated control <2.78) was 10.22 pg/mL, the RANTES ([1]; untreated control <2.79) was 638.27 pg/mL and the IL-13 ([1]; untreated control <2.90) was 7.71 pg/mL. The G-CSF ([1]; untreated control <3.18) was 190 pg/mL, the “IL-12 (p40)” value ([1]; untreated control <3.18) was 19.93 pg/mL and the G-CSF ([1]; untreated control <3.18, listed as AviA) was 190.3 pg/mL. For the same sequence, the IFNa2 ([1]; untreated control <3.89) was 4.69 pg/mL, the Eotaxin ([1]; untreated control <4.09) was <4.09↓ pg/ml and the IL-9 ([1]; untreated control <4.87) was 6.5 pg/mL. It also gave an EGF ([1]; untreated control <4.94) of 6.51 pg/mL, an IL-22 ([1]; untreated control <7.95) of 15.81 pg/mL and an IL-27 ([1]; untreated control <11.45) of 31.07 pg/mL. The FGF-2 ([1]; untreated control <12.00) was 33.02 pg/mL, the IL-17F ([1]; untreated control <14.61) was <14.61↓ pg/ml and the Fractalkine ([1]; untreated control <19.20) was <19.20↓ pg/ml. For the same sequence, the IL-17E/IL-25 ([1]; untreated control <19.97) was <19.97↓ pg/ml, the M-GSF ([1]; untreated control <23.43) was 261.13 pg/mL and the “Minimum Inhibitory Concentration” value (L. monocytogenes EGD [2]) was less than 0.125 µM. The “Minimum Inhibitory Concentration” value (L. lactis MK43) was greater than 32 µM, the “Minimum Inhibitory Concentration” value (B. subtilis B-886) was greater than 32 µM and the “Minimum Inhibitory Concentration” value (M. luteus Ac-2229) was greater than 32 µM. For the same sequence, the “Minimum Inhibitory Concentration” value [3] was greater than 32 µM, the “Minimum Inhibitory Concentration” value (E. coli XDR CI 1057) was greater than 32 µM and the “Minimum Inhibitory Concentration” value (A. baumannii XDR CI 2675) was greater than 32 µM. For the same sequence, the “Minimum Inhibitory Concentration” value (L. lactis MK66) was greater than 32 µM, the “Minimum Inhibitory Concentration” value (E. coli ML-35p) was greater than 32 µM and the “Minimum Inhibitory Concentration” value (M. phlei Ac-1221) was greater than 32 µM. For the same sequence, the “Minimum Inhibitory Concentration” value (S. aureus 209P) was greater than 32 µM, the “Minimum Inhibitory Concentration” value (E. coli ATCC 25922) was greater than 32 µM and the “Minimum Inhibitory Concentration” value (E. coli SQ110) was greater than 32 µM. For the same sequence, the “Minimum Inhibitory Concentration” value (B. licheniformis B-511) was greater than 32 µM, the “Antimicrobial activity, zones of growth inhibition (qualitative)” value (L. monocytogenes EGD [4]) was “high activity” and the “Antimicrobial activity, zones of growth inhibition (qualitative)” value (L. monocytogenes EGD [4]; listed as avicin A) was “presence of such activity”.
